Test results from the NIST ThermoML archive (doi:10.1016/j.jct.2016.09.005).

Conditions: 5500 kPa, Brillouin Light Scattering

CCCCCC [hexane]
speed of sound [m/s]
Conditions	300.09 K	353.12 K	403.17 K	453.15 K	503.13 K	547.89 K	578.22 K	608.05 K	636.04 K
Fluid (supercritical or subcritical phases)	–	–	–	–	–	158.25	154.04	178.03	194.98
Liquid	1111.2	898.5	705.9	513	323.7	–	–	–	–
